The values that follow come from ChEMBL document CHEMBL1201862, “PubChem BioAssay data set” (2004).

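Growth conditions: 96-well plates. Treatment: test compound, 48 hours, 5 concentrations. Analysis: linear interpolation between bracketing concentrations; unreached endpoints set to highest concentration. The concentration for 50% growth inhibition is given as GI50.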 Active and inactive are the calls of the source. Rule as the data show it: active = GI50 up to about 1.1 µM and inactive = higher.

Some test systems named below: A549; CAKI-1; HOP-92; LOX IMVI; M14; MCF7; MDA-N; OVCAR-4; OVCAR-8; PC-3; RPMI-8226; SF-539; SK-MEL-2; SK-OV-3; SN12C; SNB-75; TK-10; U-251.
Holding throughout (test): growth of human tumour cells (NCI), 48 h

Regarding `COc1cc(C2CC(C)(Nc3ccccc3)Oc3cc4c(cc32)OCO4)cc(OC)c1OC` (stereo not given), the GI50 is 2.14 µM (inactive) in the experiment with A549; 0.478 µM (active) in the experiment with CAKI-1; 15.8 µM (inactive) in the experiment with HOP-92; 0.256 µM (active) in the experiment with LOX IMVI; 0.223 µM (active) with M14; 0.135 µM (active) in the experiment on MCF7. The GI50 in the experiment on MDA-N is 0.0412 µM (active); with OVCAR-4, 1.84 µM (inactive); in the experiment on OVCAR-8 it was 0.483 µM (active); with PC-3, 0.251 µM (active); in the experiment with RPMI-8226 it was 0.263 µM (active); in the experiment on SF-539, 0.171 µM (active). Besides, the GI50 was 0.303 µM (active) in the experiment with SK-MEL-2; 0.394 µM (active) with SK-OV-3; 0.247 µM (active) in the experiment on SN12C; 3.49 µM (inactive) with SNB-75; 1.88 µM (inactive) in the experiment with TK-10; 0.279 µM (active) in the experiment on U-251.

For `CC(C)CCCC(C)[C@H]1CC[C@H]2NCCCC[C@]12C` (stereo not given in full), the GI50 in the experiment on A549 was 6.64 µM (inactive); in the experiment with CAKI-1, 7.05 µM (inactive); with HOP-92, 3.48 µM (inactive); in the experiment with LOX IMVI, 1.85 µM (inactive); with M14, 2.1 µM (inactive); in the experiment on MCF7, 2 µM (inactive). Moreover, the GI50 is 1.96 µM (inactive) in the experiment on MDA-N; 6.58 µM (inactive) with OVCAR-4; 3.03 µM (inactive) with OVCAR-8; 3.07 µM (inactive) in the experiment with PC-3; 1.92 µM (inactive) in the experiment with RPMI-8226; 5.92 µM (inactive) in the experiment with SF-539. Also, the GI50 with SK-MEL-2 is 2.88 µM (inactive); with SK-OV-3, 14.3 µM (inactive); with SN12C, 6.24 µM (inactive); with SNB-75, 6.03 µM (inactive); in the experiment with TK-10 it was 4.28 µM (inactive); in the experiment on U-251 it was 2.4 µM (inactive).

Regarding `Cc1cc(=O)oc2c(CNC(CO)C(=O)O)c(O)ccc12` (stereo not given), the GI50 in the experiment on A549, with CAKI-1, in the experiment on HOP-92, in the experiment with LOX IMVI, with M14 and in the experiment on MCF7 was > 100 µM (inactive) each time. For the same molecule, the GI50 in the experiment with MDA-N, with OVCAR-4, in the experiment on OVCAR-8, in the experiment on PC-3, in the experiment with RPMI-8226 and in the experiment with SF-539 was > 100 µM (inactive) each time. The GI50 in the experiment with SK-MEL-2 is > 100 µM (inactive); in the experiment with SK-OV-3 it was > 100 µM (inactive); with SN12C, > 100 µM (inactive); with SNB-75 it was > 100 µM (inactive); with TK-10, 80.9 µM (inactive); in the experiment with U-251, > 100 µM (inactive).

As for `CCOC(=O)c1nc2c3c(ncn2n1)Oc1c(c(-c2ccccc2)nn1-c1ccccc1)C3c1ccc(OC)c(OC)c1` (stereo not given), the GI50 is 59.2 µM (inactive) in the experiment on A549; 50.1 µM (inactive) in the experiment on CAKI-1; 41.1 µM (inactive) in the experiment with HOP-92; > 100 µM (inactive) in the experiment on LOX IMVI; > 100 µM (inactive) in the experiment with M14; > 100 µM (inactive) in the experiment with MCF7. In addition, the GI50 was > 100 µM (inactive) in the experiment with MDA-N; 6.04 µM (inactive) with OVCAR-4; 25.9 µM (inactive) in the experiment on OVCAR-8; > 100 µM (inactive) in the experiment on PC-3; 25.9 µM (inactive) in the experiment on RPMI-8226; 11.9 µM (inactive) in the experiment with SF-539. Further, the GI50 in the experiment with SK-MEL-2 was > 100 µM (inactive); in the experiment with SK-OV-3, 92.9 µM (inactive); in the experiment on SN12C it was > 100 µM (inactive); in the experiment on SNB-75, 31.3 µM (inactive); with TK-10 it was > 100 µM (inactive); with U-251, 31.3 µM (inactive).

Take `C1CCN2CC34CC(CC5CCCN(C6CCCC3N6)C54)C2C1` (stereo not given): the GI50 with A549, in the experiment with CAKI-1, in the experiment on HOP-92, in the experiment with LOX IMVI, with M14 and in the experiment on MCF7 was > 100 µM (inactive) in each case. Moreover, the GI50 in the experiment with MDA-N, in the experiment with OVCAR-4, in the experiment on OVCAR-8, in the experiment on PC-3, with RPMI-8226 and with SF-539 was > 100 µM (inactive) throughout. Also, the GI50 with SK-MEL-2, with SK-OV-3, in the experiment with SN12C, with SNB-75, with TK-10 and in the experiment with U-251 was > 100 µM (inactive) each time.

Consider `COc1ccc(C(C)NNC(=O)c2cc[n+]([BH2-]C#N)cc2)cc1F` (stereo not given), for which the GI50 with A549, with CAKI-1, with HOP-92, in the experiment with LOX IMVI, in the experiment on M14 and with MCF7 was > 100 µM (inactive) throughout. For the same molecule, the GI50 in the experiment with MDA-N, in the experiment with OVCAR-4, in the experiment with OVCAR-8, with PC-3, in the experiment with RPMI-8226 and in the experiment with SF-539 was > 100 µM (inactive) throughout. Also, the GI50 with SK-MEL-2, with SK-OV-3, with SN12C, in the experiment with SNB-75, with TK-10 and in the experiment on U-251 was > 100 µM (inactive) each time.

In the case of `O=c1oc2c(Cl)cc(Cl)cc2cc1C1=CSC2=NCCN12`, the GI50 in the experiment with A549 is 64.3 µM (inactive); with CAKI-1, 52.2 µM (inactive); in the experiment with HOP-92, 28.6 µM (inactive); with LOX IMVI, 59.8 µM (inactive); with M14, 55.2 µM (inactive); in the experiment with MCF7 it was 28.8 µM (inactive). Moreover, the GI50 in the experiment with MDA-N was 36.2 µM (inactive); in the experiment on OVCAR-4, 39.7 µM (inactive); with OVCAR-8, 63.7 µM (inactive); with PC-3, 42.1 µM (inactive); with RPMI-8226, 58.9 µM (inactive); in the experiment with SF-539, > 100 µM (inactive). Further, the GI50 was > 100 µM (inactive) with SK-MEL-2; > 100 µM (inactive) in the experiment with SK-OV-3; 51.8 µM (inactive) in the experiment on SN12C; 65.8 µM (inactive) in the experiment on SNB-75; 73.1 µM (inactive) in the experiment on TK-10; 44.7 µM (inactive) with U-251.

As for `CN(C)c1ccc(-c2nc(-c3cc4c(ccc5ccccc54)oc3=O)cs2)cc1`, the GI50 with A549, with CAKI-1, with HOP-92, with LOX IMVI, in the experiment with M14 and in the experiment on MCF7 was > 100 µM (inactive) in each case. The GI50 in the experiment on MDA-N, with OVCAR-4, in the experiment with OVCAR-8, in the experiment on PC-3, in the experiment with RPMI-8226 and with SF-539 was > 100 µM (inactive) each time. The GI50 with SK-MEL-2, in the experiment with SK-OV-3, in the experiment with SN12C, with SNB-75, in the experiment on TK-10 and with U-251 was > 100 µM (inactive) each time.

Consider `CCC/C=C/C=C/C(=O)OC1C(C)C2(O)C3C=C(C)C(=O)C3CC(COC(C)=O)=CC2C2C(C)(C)C12OC(=O)C(C)C` (stereo not given), for which the GI50 is 0.406 µM (active) with A549; 0.83 µM (active) in the experiment with CAKI-1; 8.81 µM (inactive) in the experiment on HOP-92; 19.7 µM (inactive) in the experiment on LOX IMVI; 14.1 µM (inactive) in the experiment with M14; 17.2 µM (inactive) in the experiment on MCF7. Moreover, the GI50 in the experiment on MDA-N was 0.29 µM (active); in the experiment with OVCAR-4, 22.9 µM (inactive); in the experiment on OVCAR-8, 22.8 µM (inactive); in the experiment with PC-3, 11.6 µM (inactive); with RPMI-8226 it was 11.8 µM (inactive); in the experiment with SF-539, 11.7 µM (inactive). Moreover, the GI50 is 18.4 µM (inactive) with SK-MEL-2; 53.1 µM (inactive) with SK-OV-3; 11 µM (inactive) in the experiment on SN12C; 10.3 µM (inactive) in the experiment on SNB-75; 13.5 µM (inactive) in the experiment on TK-10.

For the molecule `Cc1c(C#N)c2nnn(-c3ccccc3)c(=O)n2c1-c1ccccc1`, the GI50 is 1.29 µM (inactive) in the experiment on A549; 2.42 µM (inactive) with CAKI-1; 31.3 µM (inactive) in the experiment on HOP-92; 4.12 µM (inactive) with LOX IMVI; 0.959 µM (active) in the experiment with M14; 2.39 µM (inactive) in the experiment with MCF7. Moreover, the GI50 in the experiment with MDA-N is 0.179 µM (active); in the experiment on OVCAR-4 it was > 41.5 µM (inactive); with OVCAR-8, 7.19 µM (inactive); in the experiment on PC-3, 1.43 µM (inactive); in the experiment on RPMI-8226, 1.24 µM (inactive); with SF-539 it was 1.17 µM (inactive). The GI50 in the experiment with SK-MEL-2 is 4.53 µM (inactive); with SK-OV-3 it was 1.41 µM (inactive); in the experiment on SN12C it was 4.65 µM (inactive); with SNB-75 it was 2.95 µM (inactive); with TK-10 it was > 59.6 µM (inactive).

For `N#CC1=C(S)N(C2OC(CO)C(O)C(O)C2O)C(c2ccccc2)=CC1c1ccccc1` (stereo not given), the GI50 in the experiment on A549 was > 100 µM (inactive); with CAKI-1, > 100 µM (inactive); in the experiment on HOP-92, 31.8 µM (inactive); with LOX IMVI, 28.1 µM (inactive); with M14, 37.5 µM (inactive); in the experiment on MCF7 it was 43.1 µM (inactive). Besides, the GI50 is 37.2 µM (inactive) in the experiment with MDA-N; 75.9 µM (inactive) in the experiment on OVCAR-4; 45.3 µM (inactive) in the experiment on OVCAR-8; 30.7 µM (inactive) with PC-3; 46.5 µM (inactive) in the experiment on RPMI-8226; 24.7 µM (inactive) in the experiment with SF-539. Moreover, the GI50 was 6.53 µM (inactive) in the experiment on SK-MEL-2; 72.4 µM (inactive) in the experiment with SN12C; 31.9 µM (inactive) with SNB-75; > 100 µM (inactive) in the experiment with TK-10; 43 µM (inactive) in the experiment with U-251.
